Measurements taken from patent publication US8263563B2, “Furin inhibitors” (priority 2004, dated 2012).
Ends that are not written are not given here. * marks the point of attachment. Decanoyl = CCCCCCCCCC(=O)*; OPH = not defined here; CH2Cl = ClC*

System: lung epethalial and macrophage cells exposed to anthrax toxin (PA and FP59)
Assay type: cell-based

Row | Substance | Protein Synthesis Inferred From ^35S incorporation
1 | decanoyl RVKR-CMK (Decanoyl-RVKR-CH2Cl) | 86.9 ± 9.9%
2 | PGluArgValArgArgOPH (PERVRR-{OPH}; not fully specified (some residues); printed as PGluArgValArgArgOPH; reading uncertain) [ERVRR-OPH] | 70.9 ± 8.7%
